In patent US20230114674A1, “ISOINDOLINE DERIVATIVE, AND PHARMACEUTICAL COMPOSITION AND USE THEREOF” (KANGPU BIOPHARMACEUTICALS, LTD., priority 2020, published 2023):

Test system: MM.1S myeloma cells
Assay: Cell proliferation inhibition test by CTG (CellTiter-Glo) assay
Format: cell-based
Settings: Homo sapiens, MM1.S, 120 hours drug treatment, 4,000 cells/well, 384-well plate, read-out: MM.2S IC50
Procedure: Experimental Method for Cell Proliferation Inhibition Test by CTG Assay:
The proliferation inhibitory activity of the compounds in the MM.1S myeloma cell model was determined by CellTiter-Glo (CTG) Luminescent Cell Viability Assay (Promega). MM.1S cells (ATCC, Cat #CRL-2974) at exponential phase were resuspended in RPMI-1640 (Gibco, Cat #11875-093)+10% FBS+1% penicillin/streptomycin+2 mM Glutamax medium and counted using an automated cell counter (ViCellXR). According to the optimized cell plating density in the pre-experiments, 40 μl of cell suspension at a density of 100,000 cells/ml was plated in the corresponding wells of a 384-well plate (4,000 cells/well) to ensure that cells in the control group were at linear growth phase within the five-day experimental period. The plated 384-well plate was cultured in a 37° C., 5% CO2 incubator for 24 hours. On the day of administration, each compound was formulated into 10 mM stock solution with DMSO (Sigma, Cat #276855-1L) and the stock solution was further diluted with DMSO to 20 μM and 20 nM working solutions. Drug treatment of MM.1S cells started at a concentration of up to 100 nM and the drug was serial diluted 4-fold with 10 points, with three replicate wells. Nanoliter volumes of compound solutions were added to the corresponding wells of the 384-well plate according to the needed concentration in a non-contact spraying manner by an HPD300 microscale automated dispenser (Tecan). The final concentration of DMSO was 0.5%. After drug addition, the 384-well plate was cultured in a 37° C., 5% CO2 incubator for 120 hours. After five days of drug treatment, 25 μl of CTG reagent (Promega, Cat #G7573) was added to each well, and the plate was shaken on a plate shaker for 10 minutes to ensure that the cells were fully lysed, and then left to stand at room temperature for 10 minutes to ensure a sufficient reaction of CTG with the substrate and the generation of a stable luminescent signal. The signal is proportional to the amount of ATP in the cell lysate, i.e., the number of metabolically active cells. Chemiluminescence of the cells in the plate was detected by an EnSpire instrument. The reading of the cells at Day 0 was used as a control for cells at growth starting point and the reading of cells with 0.5% DMSO at Day 5 was used as a control for cells under growth. Cell proliferation inhibition curve was plotted using XLFit software and the IC50 value was calculated. Experiment results can be seen in Table 2.

SMILES	IC50 [nM]
CNC(=O)c1ccc(N2CCN(Cc3ccc(COc4cccc5c4CN([C@H]4CCC(=O)NC4=O)C5=O)cc3F)CC2)cc1F [CM-45]	0.0938
CCOc1cc(N2CCN(Cc3ccc(COc4cccc5c4CN([C@H]4CCC(=O)NC4=O)C5=O)cc3F)CC2)ccc1C#N [CM-46]	0.0687
N#Cc1ccc(N2CCN(Cc3ccc(COc4cccc5c4CN([C@H]4CCC(=O)NC4=O)C5=O)c(F)c3)CC2)c(F)c1C(F)(F)F [CM-47]	0.135

Test system: MM.1S myeloma cells
Assay: Cell proliferation inhibition test by MTS assay
Format: cell-based
Settings: Homo sapiens, MM1.S, 72 hours drug treatment, 15,000 cells/well, 96-well plate
Procedure: Experimental Method for Cell Proliferation Inhibition Test by MTS Assay:
Proliferating MM.1S myeloma cells (ATCC, Cat #CRL-2974) were resuspended in RPMI-640 medium (Gibco, Cat #A10491-01) and counted using an automated cell counter. The cell suspension was diluted to the needed density and 100 μl (15,000 cells) of the cell suspension was plated per well in a 96-well plate. The plate was cultured in a 37° C., 5% CO2 incubator for 24 hours. On the day of administration, each compound was formulated into 20 mM stock solution with DMSO (Sigma, Cat #D2650), diluted with a medium to the needed concentration, and then added to the corresponding wells for the cell proliferation inhibition test with a drug of 4-fold serial dilution with 10 points. The final concentration of DMSO was 0.5%. After drug addition, the 96-well plate was cultured in a 37° C., 5% CO2 incubator for 72 hours. Then, 20 μl of MTS (Promega, Cat #G3581) was added to each well and the plate was cultured for 2 hours in a 37° C., 5% CO2 incubator, and then the absorbance at 490 nm of each well was recorded using an Ensight instrument. The reading of the cells at Day 0 was used as a negative control and the reading of cells with 0.5% DMSO at Day-3 was used as a positive control. Cell proliferation inhibition curve was plotted using GraphPad Prism 5 software and the IC50 value was calculated. Experiment results can be seen in Table 1.

SMILES	IC50 [nM]
N#Cc1ccc(N2CCN(Cc3ccc(COc4cccc5c4CN([C@H]4CCC(=O)NC4=O)C5=O)c(Cl)c3)CC2)c(F)c1 [CM-1]	0.102
O=C1CC[C@H](N2Cc3c(OCc4ccc(CN5CCN(c6ccc([N+](=O)[O-])cc6F)CC5)cc4F)cccc3C2=O)C(=O)N1 [CM-2, (S)-3-(4-((2-fluoro-4-((4-(2-fluoro-4-nitrophenyl)piperazin-1-yl)methyl)benzyl)oxy)-1-oxoisoindolin-2-yl)piperidine-2,6-dione]	0.0139
N#Cc1ccc(N2CCN(Cc3ccc(COc4cccc5c4CN([C@H]4CCC(=O)NC4=O)C5=O)c(F)c3)CC2)c(F)c1 [CM-3, (S)-4-(4-(4-(((2-(2,6-dioxopiperidin-3-yl)-1-oxoisoindolin-4-yl)oxy)methyl)-3-fluorobenzyl)piperazin-1-yl)-3-fluorobenzonitrile]	0.0064
N#Cc1ccc(N2CCN(Cc3ccc(COc4cccc5c4CN([C@H]4CCC(=O)NC4=O)C5=O)cc3F)CC2)c(F)c1 [CM-4, (S)-4-(4-(4-(((2-(2,6-dioxopiperidin-3-yl)-1-oxoisoindolin-4-yl)oxy)methyl)-2-fluorobenzyl)piperazin-1-yl)-3-fluorobenzonitrile]	0.0153
N#Cc1ccc(N2CCN(Cc3ccc(COc4cccc5c4CN([C@H]4CCC(=O)NC4=O)C5=O)c(F)c3)CC2)cc1F [CM-5, (S)-4-(4-(4-(((2-(2,6-dioxopiperidin-3-yl)-1-oxoisoindolin-4-yl)oxy)methyl)-3-fluorobenzyl)piperazin-1-yl)-2-fluorobenzonitrile]	0.0063
N#Cc1ccc(N2CCN(Cc3ccc(COc4cccc5c4CN([C@H]4CCC(=O)NC4=O)C5=O)c(F)c3)CC2)cc1C(F)(F)F [CM-6, (S)-4-(4-(4-(((2-(2,6-dioxopiperidin-3-yl)-1-oxoisoindolin-4-yl)oxy)methyl)-3-fluorobenzyl)piperazin-1-yl)-2-(trifluoromethyl)benzonitrile]	0.0409
COc1cc(N2CCN(Cc3ccc(COc4cccc5c4CN([C@H]4CCC(=O)NC4=O)C5=O)c(F)c3)CC2)ccc1C#N [CM-7, (S)-4-(4-(4-(((2-(2,6-dioxopiperidin-3-yl)-1-oxoisoindolin-4-yl)oxy)methyl)-3-fluorobenzyl)piperazin-1-yl)-2-methoxybenzonitrile]	0.0054
N#Cc1ccc(N2CCN(Cc3ccc(COc4cccc5c4CN([C@H]4CCC(=O)NC4=O)C5=O)c(F)c3)CC2)c(C(F)(F)F)c1 [CM-8]	0.0211
N#Cc1ccc(N2CCN(Cc3ccc(COc4cccc5c4CN([C@H]4CCC(=O)NC4=O)C5=O)c(F)c3)CC2)c(Cl)c1 [CM-9]	0.0136
N#Cc1ccc(N2CCN(Cc3ccc(COc4cccc5c4CN([C@H]4CCC(=O)NC4=O)C5=O)c(F)c3)CC2)cc1 [CM-10]	0.0105
Cc1cc(N2CCN(Cc3ccc(COc4cccc5c4CN([C@H]4CCC(=O)NC4=O)C5=O)c(F)c3)CC2)ccc1C#N [CM-11]	0.0091
CCOc1cc(N2CCN(Cc3ccc(COc4cccc5c4CN([C@H]4CCC(=O)NC4=O)C5=O)c(F)c3)CC2)ccc1C#N [CM-12]	0.0067
N#Cc1ccc(N2CCN(Cc3ccc(COc4cccc5c4CN([C@H]4CCC(=O)NC4=O)C5=O)c(F)c3)CC2)cc1OCC1CC1 [CM-13]	0.0271
[2H]C([2H])([2H])Oc1cc(N2CCN(Cc3ccc(COc4cccc5c4CN([C@H]4CCC(=O)NC4=O)C5=O)c(F)c3)CC2)ccc1C#N [CM-15]	0.0062
O=C1CC[C@H](N2Cc3c(OCc4ccc(CN5CCN(c6ccc(C(F)(F)F)c(F)c6)CC5)cc4F)cccc3C2=O)C(=O)N1 [CM-16]	0.189
NC(=O)c1ccc(N2CCN(Cc3ccc(COc4cccc5c4CN([C@H]4CCC(=O)NC4=O)C5=O)c(F)c3)CC2)cc1F [CM-18, (S)-4-(4-(4-(((2-(2,6-dioxopiperidin-3-yl)-1-oxoisoindolin-4-yl)oxy)methyl)-3-fluorobenzyl)piperazin-1-yl)-2-fluorobenzamide]	0.0188
N#Cc1ccc(N2CCN(Cc3ccc(COc4cccc5c4CN([C@H]4CCC(=O)NC4=O)C5=O)cc3F)CC2)cc1F [CM-20]	0.0132
COc1cc(N2CCN(Cc3ccc(COc4cccc5c4CN([C@H]4CCC(=O)NC4=O)C5=O)cc3F)CC2)ccc1C#N [CM-21]	0.0111

SMILES	IC50 [nM]
NC(=O)c1ccc(N2CCN(Cc3ccc(COc4cccc5c4CN([C@H]4CCC(=O)NC4=O)C5=O)cc3F)CC2)c(F)c1 [CM-23]	0.0581
NC(=O)c1ccc(N2CCN(Cc3ccc(COc4cccc5c4CN([C@H]4CCC(=O)NC4=O)C5=O)c(F)c3)CC2)c(F)c1 [CM-24]	0.0388
N#Cc1ncc(N2CCN(Cc3ccc(COc4cccc5c4CN([C@H]4CCC(=O)NC4=O)C5=O)cc3F)CC2)cc1C(F)(F)F [CM-25]	0.0291
CCOc1nc(N2CCN(Cc3ccc(COc4cccc5c4CN([C@H]4CCC(=O)NC4=O)C5=O)cc3F)CC2)ccc1OC [CM-26]	0.465
COc1cc(C#N)ccc1N1CCN(Cc2ccc(COc3cccc4c3CN([C@H]3CCC(=O)NC3=O)C4=O)c(F)c2)CC1 [CM-27]	0.134
N#Cc1ccc(N2CCN(Cc3ccc(COc4cccc5c4CN([C@H]4CCC(=O)NC4=O)C5=O)c(F)c3)CC2)cn1 [CM-28]	0.102
N#Cc1ccc(N2CCN(Cc3ccc(COc4cccc5c4CN(C4CCC(=O)NC4=O)C5=O)c(F)c3)CC2)nc1 (stereo not drawn) [CM-29]	0.201
N#Cc1ccc(N2CCN(Cc3ccc(COc4cccc5c4CN([C@H]4CCC(=O)NC4=O)C5=O)c(F)c3)CC2)c(C#N)c1 [CM-30]	0.109
N#Cc1ccc(N2CCN(Cc3ccc(COc4cccc5c4CN([C@H]4CCC(=O)NC4=O)C5=O)c(F)c3)CC2)c(C(N)=O)c1 [CM-33]	0.0781
CNC(=O)c1cc(C#N)ccc1N1CCN(Cc2ccc(COc3cccc4c3CN([C@H]3CCC(=O)NC3=O)C4=O)c(F)c2)CC1 [CM-34]	0.0766
CCc1cc(C#N)ccc1N1CCN(Cc2ccc(COc3cccc4c3CN([C@H]3CCC(=O)NC3=O)C4=O)c(F)c2)CC1 [CM-35]	0.0962
CCOc1cc(C#N)ccc1N1CCN(Cc2ccc(COc3cccc4c3CN([C@H]3CCC(=O)NC3=O)C4=O)c(F)c2)CC1 [CM-36]	0.148
N#Cc1ccc(N2CCN(Cc3ccc(COc4cccc5c4CN([C@H]4CCC(=O)NC4=O)C5=O)c(F)c3)CC2)cc1C1CC1 [CM-37]	0.119
C=Cc1ccc(N2CCN(Cc3ccc(COc4cccc5c4CN([C@H]4CCC(=O)NC4=O)C5=O)c(F)c3)CC2)c(F)c1 [CM-38]	1.21
N#Cc1ccc(N2CCN(Cc3ccc(COc4cccc5c4CN([C@H]4CCC(=O)NC4=O)C5=O)c(F)c3)CC2)cc1Cl [CM-39]	0.0631
N#Cc1ccc(N2CCN(Cc3ccc(COc4cccc5c4CN([C@H]4CCC(=O)NC4=O)C5=O)c(F)c3)CC2)c(O)c1 [CM-40]	0.378
CCc1cc(N2CCN(Cc3ccc(COc4cccc5c4CN([C@H]4CCC(=O)NC4=O)C5=O)c(F)c3)CC2)ccc1C#N [CM-41]	0.116
C#Cc1ccc(N2CCN(Cc3ccc(COc4cccc5c4CN([C@H]4CCC(=O)NC4=O)C5=O)c(F)c3)CC2)c(F)c1 [CM-43]	0.576
